Experimental data taken from US7754896B2, “Indol-alanine derivatives as selective S1P4-agonists” (Novartis AG, priority 2004, dated 2010).

Biological target: T1, S1P4 (Homo sapiens, UniProt O95977)
T1 construct: expressed in transfected cells
T1 sequence (O95977 1-384): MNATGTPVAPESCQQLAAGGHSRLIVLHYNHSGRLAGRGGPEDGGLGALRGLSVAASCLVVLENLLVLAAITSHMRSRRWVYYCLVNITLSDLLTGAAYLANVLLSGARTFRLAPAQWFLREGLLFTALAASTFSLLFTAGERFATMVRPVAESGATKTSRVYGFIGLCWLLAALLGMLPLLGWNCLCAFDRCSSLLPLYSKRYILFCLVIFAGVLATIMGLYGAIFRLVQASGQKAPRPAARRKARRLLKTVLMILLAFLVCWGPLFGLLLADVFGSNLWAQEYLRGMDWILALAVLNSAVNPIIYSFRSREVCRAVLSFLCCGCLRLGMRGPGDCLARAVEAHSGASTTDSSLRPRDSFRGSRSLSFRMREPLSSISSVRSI
Assay: Calcium mobilization assay, CHO cells expressing S1P4
Type: cell-based
Description: An expression vector for the human S1P4 gene (HSEDG4; GenBank Accession Number AJ000479) fused to the c-myc peptide tag at the C-terminus is obtained as described in Van Brocklyn et al. 2000, Blood 95(8), 2624. The encoding DNA for the S1P4-myc fusion protein is cloned in the mammalian expression vector pRc/CMV (Invitrogen), which confers G418 resistance for the selection of stable mammalian cells. The DNA sequence of the S1P4 insert is determined on both strands. […] The S1P4-myc cDNA is inserted into the pRc/CMV vector using HindIII/XbaI.
To develop stable cell lines expressing the c-myc tagged S1P4 receptor 5 μg of plasmid pRc/CMV myc-S1P4 is cut using restriction endonuclease PvuI, which cleaves the plasmid once. The linearized plasmid is then precipitated using a final concentration of 0.3M sodium acetate, pH5.0 and 66% ethanol. […] Individual clones that grew after the sort and selection procedure are expanded and one clone is finally selected based on the level of S1P4 mRNA expression determined by TaqMan quantitative PCR analysis.
CHO cells are plated in black Costar plate (96 or 384 well, 50,000 cells or 12,500 cells, respectively) in a MEM with FCS and cultured for 20-24 h at 37° C. in a CO2 incubator. […] After measuring the baseline for 40 sec, the agonist in HBSS is added and the fluorescence is measured at intervals of 2 sec for 3 to 5 min. […]

`NC(CNC(=O)c1cc2c(-c3ccccc3Cc3ccccc3)cccc2[nH]1)C(=O)O` (stereo not shown) [Example 2] was tested, and the EC50 was 10 nM.
